For 25 molecules, IC50 results are on record in US12336981B2, “Compounds and compositions for the inhibition of NAMPT” (Valo Health, Inc., priority 2010, dated 2025).

Each structure is given as a SMILES string. Where two headings read alike, the source gives them in different places.

One experiment has as its system A2780 cells. Nature of the experiment: In-vitro cell proliferation assay (SRB), A2780 cells. The format is cell-based. To be noted: Homo sapiens, A2780, 72 h, A2780 cells, 72 hours, read-out: A2780 IC50. In outline:
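Cells were plated overnight at 37° C., 5% CO2, then exposed to serially diluted compounds (0.1% DMSO final) for 72 hours. Viable cells were measured by sulforhodamine B staining after TCA fixation, read at 570 nm; media-only background was subtracted before % inhibition was calculated.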

In the next experiment the target is T1, NAMPT (Homo sapiens, UniProt P43490).
T1 construct: His tag; host or cells: E. coli
T1 sequence (P43490 whole entry): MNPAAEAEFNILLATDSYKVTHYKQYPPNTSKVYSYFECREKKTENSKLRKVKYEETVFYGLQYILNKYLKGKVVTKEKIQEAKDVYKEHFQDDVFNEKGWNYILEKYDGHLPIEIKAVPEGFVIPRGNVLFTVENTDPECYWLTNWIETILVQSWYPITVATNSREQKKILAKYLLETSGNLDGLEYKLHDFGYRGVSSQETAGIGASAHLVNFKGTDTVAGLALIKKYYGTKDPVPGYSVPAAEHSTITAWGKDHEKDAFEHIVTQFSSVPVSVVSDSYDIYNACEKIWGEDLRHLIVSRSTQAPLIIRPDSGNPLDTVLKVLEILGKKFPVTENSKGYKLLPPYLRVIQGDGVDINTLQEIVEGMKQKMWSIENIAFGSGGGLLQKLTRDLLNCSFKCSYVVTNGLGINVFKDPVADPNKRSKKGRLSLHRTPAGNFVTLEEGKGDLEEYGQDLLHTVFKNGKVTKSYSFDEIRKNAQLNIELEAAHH
In words: Biochemical inhibition assay: NAMPT enzymatic reaction, NMN quantified by mass spectrometry. To be noted: NAMPT enzymatic reaction; read-out: Biochem IC50. In outline:
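Inhibition of E. coli-expressed His-tagged human NAMPT, measured as NMN formation by mass spectrometry after a 30 min room-temperature reaction containing 1 μM NAM, 100 μM PRPP and 2.5 mM ATP.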

`COc1cccc(NS(=O)(=O)c2ccc(CNC(=O)c3cc4cnccc4[nH]3)cc2)c1C` [N-({4-[(3-methoxy-2-methylphenyl)sulfamoyl]phenyl}methyl)-1H-pyrrolo[3,2-c]pyridine-2-carboxamide]: the IC50 in the experiment on A2780 cells (SRB assay) amounted to 6 nM; on NAMPT, 30 nM.

Turning to `COc1cc(S(=O)(=O)c2ccc(CNC(=O)c3cnc4[nH]ncc4c3)cc2)ccc1C` [N-({4-[(3-methoxy-4-methylbenzene)sulfonyl]phenyl}methyl)-1H-pyrazolo[3,4-b]pyridine-5-carboxamide], the values for the concentration for half-maximal inhibition (IC50) in the experiment with A2780 cells (SRB) and on NAMPT were 3.4 nM and 3.6 nM, respectively.

On to `COc1cccc(S(=O)(=O)c2ccc(CNC(=O)c3cc4cnccc4[nH]3)cc2)c1` [N-({4-[(3-methoxybenzene)sulfonyl]phenyl}methyl)-1H-pyrrolo[3,2-c]pyridine-2-carboxamide], for which the IC50 came to 4 nM in the experiment with A2780 cells (SRB assay) and 7 nM on NAMPT.

On to `COc1cccc(S(=O)(=O)c2ccc(CNC(=O)c3ccc4nccn4c3)cc2)c1` [N-({4-[(3-methoxybenzene)sulfonyl]phenyl}methyl)imidazo[1,2-a]pyridine-6-carboxamide], for which the 50% inhibitory concentration (IC50) is 2.45 nM in the experiment on A2780 cells (SRB) and 4.97 nM at NAMPT.

In the case of `COc1cccc(S(=O)(=O)c2ccc(CNC(=O)c3cnc4nccn4c3)cc2)c1` [N-({4-[(3-methoxybenzene)sulfonyl]phenyl}methyl)imidazo[1,2-a]pyrimidine-6-carboxamide], the figures for the IC50 in the experiment with A2780 cells (SRB) and at NAMPT were 12.4 nM and 2 nM, respectively.

In the case of `COc1cccc(S(=O)(=O)c2ccc(CNC(=O)c3cc4ccncc4s3)cc2)c1` [N-({4-[(3-methoxybenzene)sulfonyl]phenyl}methyl)thieno[2,3-c]pyridine-2-carboxamide], the IC50 in the experiment with A2780 cells (SRB assay) amounted to 2.6 nM; on NAMPT it was 5 nM.

As for `Cc1cccc(S(=O)(=O)c2ccc(CNC(=O)c3cc4cnccc4[nH]3)cc2)c1` [N-({4-[(3-methylbenzene)sulfonyl]phenyl}methyl)-1H-pyrrolo[3,2-c]pyridine-2-carboxamide], the results for the IC50 with A2780 cells (SRB assay) and at NAMPT were 4 nM and 9 nM, respectively.

As to `Cc1cccc(S(=O)(=O)c2ccc(CNC(=O)c3cc4ccncc4o3)cc2)c1` [N-({4-[(3-methylbenzene)sulfonyl]phenyl}methyl)furo[2,3-c]pyridine-2-carboxamide], the IC50 is 5.3 nM in the experiment on A2780 cells (SRB) and 2.3 nM at NAMPT.

As to `Cc1cccc(S(=O)(=O)c2ccc(CNC(=O)c3ccc4nccn4c3)cc2)c1` [N-({4-[(3-methylbenzene)sulfonyl]phenyl}methyl)imidazo[1,2-a]pyridine-6-carboxamide], the concentration for half-maximal inhibition (IC50) in the experiment on A2780 cells (SRB) stood at 6.39 nM; on NAMPT, 8.12 nM.

Take `Cc1cccc(S(=O)(=O)c2ccc(CNC(=O)c3cc4ccncc4s3)cc2)c1` [N-({4-[(3-methylbenzene)sulfonyl]phenyl}methyl)thieno[2,3-c]pyridine-2-carboxamide]: the half-inhibitory concentration (IC50) in the experiment on A2780 cells (SRB assay) was 2.3 nM; at NAMPT, 4 nM.

For `O=C(NCc1ccc(S(=O)(=O)c2cccc(-c3ccccc3)c2)cc1)c1ccc2ncsc2c1` [N-({4-[(3-phenylbenzene)sulfonyl]phenyl}methyl)-1,3-benzothiazole-6-carboxamide], the IC50 with A2780 cells (SRB) was 1000 to 10000 nM; on NAMPT it was 18.5 nM.

`O=C(NCc1ccc(S(=O)(=O)c2cccc(-c3ccccc3)c2)cc1)c1cc2ccncc2o1` [N-({4-[(3-phenylbenzene)sulfonyl]phenyl}methyl)furo[2,3-c]pyridine-2-carboxamide]: the figures for the IC50 with A2780 cells (SRB) and at NAMPT were 23.4 nM and 13.7 nM, respectively.

Turning to `O=C(NCc1ccc(S(=O)(=O)CCCc2ccccc2)cc1)c1cc2cnccc2[nH]1` [N-({4-[(3-phenylpropane)sulfonyl]phenyl}methyl)-1H-pyrrolo[3,2-c]pyridine-2-carboxamide], the values for the half-maximal inhibitory concentration (IC50) in the experiment on A2780 cells (SRB) and at NAMPT were 78 nM and 14 nM, respectively.

With `CCCOc1cccc(S(=O)(=O)c2ccc(CNC(=O)c3cnc4[nH]ncc4c3)cc2)c1` [N-({4-[(3-propoxybenzene)sulfonyl]phenyl}methyl)-1H-pyrazolo[3,4-b]pyridine-5-carboxamide], the concentration for half-maximal inhibition (IC50) in the experiment on A2780 cells (SRB) worked out at 41 nM; at NAMPT it was 30.4 nM.

For `NS(=O)(=O)c1cccc(S(=O)(=O)c2ccc(CNC(=O)c3cnc4[nH]ncc4c3)cc2)c1` [N-({4-[(3-sulfamoylbenzene)sulfonyl]phenyl}methyl)-1H-pyrazolo[3,4-b]pyridine-5-carboxamide], the half-inhibitory concentration (IC50) with A2780 cells (SRB) was 100 to 1000 nM; at NAMPT it was 30.1 nM.

For the molecule `COc1cc(F)c(F)cc1S(=O)(=O)c1ccc(CNC(=O)c2cc3cnccc3[nH]2)cc1` [N-({4-[(4,5-difluoro-2-methoxybenzene)sulfonyl]phenyl}methyl)-1H-pyrrolo[3,2-c]pyridine-2-carboxamide], the IC50 in the experiment on A2780 cells (SRB assay) came out at 6 nM; on NAMPT, 14 nM.

In the case of `COc1cc(F)c(F)cc1S(=O)(=O)c1ccc(CNC(=O)c2ccc3nccn3c2)cc1` [N-({4-[(4,5-difluoro-2-methoxybenzene)sulfonyl]phenyl}methyl)imidazo[1,2-a]pyridine-6-carboxamide], the 50% inhibitory concentration (IC50) with A2780 cells (SRB) amounted to 6.8 nM; on NAMPT it was 28.1 nM.

As to `COc1cc(F)c(F)cc1S(=O)(=O)c1ccc(CNC(=O)c2cc3ccncc3s2)cc1` [N-({4-[(4,5-difluoro-2-methoxybenzene)sulfonyl]phenyl}methyl)thieno[2,3-c]pyridine-2-carboxamide], the IC50 in the experiment with A2780 cells (SRB assay) was determined as 2.9 nM; at NAMPT, 5 nM.

`CC(=O)c1ccc(S(=O)(=O)c2ccc(CNC(=O)c3cc4ccncc4s3)cc2)cc1` [N-({4-[(4-acetylbenzene)sulfonyl]phenyl}methyl)thieno[2,3-c]pyridine-2-carboxamide]: the IC50 with A2780 cells (SRB assay) is 2.5 nM; on NAMPT, 4 nM.

`CCCCOc1ccc(S(=O)(=O)c2ccc(CNC(=O)c3cnc4[nH]ncc4c3)cc2)c(C)c1` [N-({4-[(4-butoxy-2-methylbenzene)sulfonyl]phenyl}methyl)-1H-pyrazolo[3,4-b]pyridine-5-carboxamide]: the concentration for half-maximal inhibition (IC50) came to 68.8 nM with A2780 cells (SRB) and 70.9 nM on NAMPT.

Take `CCCCOc1ccc(S(=O)(=O)c2ccc(CNC(=O)c3cc4ccncc4s3)cc2)cc1F` [N-({4-[(4-butoxy-3-fluorobenzene)sulfonyl]phenyl}methyl)thieno[2,3-c]pyridine-2-carboxamide]: the concentration for half-maximal inhibition (IC50) in the experiment with A2780 cells (SRB) worked out at 12.6 nM; on NAMPT it was 4.7 nM.

In the case of `CCCCOc1ccc(S(=O)(=O)c2ccc(CNC(=O)c3cnc4[nH]ncc4c3)cc2)cc1` [N-({4-[(4-butoxybenzene)sulfonyl]phenyl}methyl)-1H-pyrazolo[3,4-b]pyridine-5-carboxamide], the IC50 was determined as 22.5 nM in the experiment on A2780 cells (SRB) and 27.5 nM on NAMPT.

On to `CCCCOc1ccc(S(=O)(=O)c2ccc(CNC(=O)c3cc4cnccc4[nH]3)cc2)cc1` [N-({4-[(4-butoxybenzene)sulfonyl]phenyl}methyl)-1H-pyrrolo[3,2-c]pyridine-2-carboxamide], for which the IC50 with A2780 cells (SRB) worked out at 17.1 nM; on NAMPT, 8.4 nM.

Take `CCCCOc1ccc(S(=O)(=O)c2ccc(CNC(=O)c3cc4ccncc4o3)cc2)cc1` [N-({4-[(4-butoxybenzene)sulfonyl]phenyl}methyl)furo[2,3-c]pyridine-2-carboxamide]: the IC50 was determined as 13 nM in the experiment with A2780 cells (SRB) and 6.2 nM at NAMPT.

With `CCCCc1ccc(S(=O)(=O)c2ccc(CNC(=O)c3cnc4[nH]ncc4c3)cc2)cc1` [N-({4-[(4-butylbenzene)sulfonyl]phenyl}methyl)-1H-pyrazolo[3,4-b]pyridine-5-carboxamide], the half-inhibitory concentration (IC50) was found to be 68.4 nM with A2780 cells (SRB) and 71.2 nM at NAMPT.
